Assay results taken from patent publication US20240092774A1, “HETEROAROMATIC COMPOUNDS AND USES THEREOF” (HUTCHISON MEDIPHARMA LIMITED, priority 2020, published 2024).

Experiments:
[1] = molecular target: CSF1R phosphorylation in THP-1 cells (Homo sapiens (Human), UniProt P07333); test: Detection of CSF1R phosphorylation activity at cell level (p-CSF1R ELISA, M-CSF stimulated THP-1 cells); format: cell-based; details: THP-1 cells, M-CSF stimulation, p-CSF1R ELISA; read-out: IC50
Method: THP-1 (ATCC), human acute monocytic leukemia cells.
3. Treatment of cells and preparation of lysis buffer
5 μL. of the diluted compound was added to the 50 μL cell culture system, the culture was cultured in a 5% CO2, 37° C. cell incubator for 60 min, 300 ng/mL of M-CSF was added to the cells, and the mixture was stimulated in the 37° C. cell incubator for 1 min, added 50 μL of cell lysis buffer, and stored in a refrigerator at −80° C.
100 μL/well of the p-CSF1R capture antibody diluted to 0.8 μg/mL with PBS was added to the ELISA plate, and the plate was coated on a shaker at room temperature overnight. The culture was washed with PBST, and then added blocking solution and incubated at room temperature for 2 h. The culture was washed with PBST, added 90 μL of cell lysis buffer, and incubated on a shaker at 25° C. for 2 h. The plate was washed with PBST three times, added 100 μL of anti-p-tyrosine-HRP detection antibody diluted with 0.1% PBS-BSA diluent, and incubated on a shaker at 25° C. for 2 h. The plate was washed with PBST washing liquid, added 100 μL of chromogenic substrate and incubated at room temperature for 10-20 min. The reaction was stopped by adding 50 μL of 2N H2SO4. The optical density signal (450/570 nm) of each well was detected in Labsystems Multiskan K3 or Envision.
wherein • Drug-treated well read-out: indicating the optical density signal of a cell well with the test compound treatment. • Background read-out: indicating the optical density signal of a well without cells but with cell lysis buffer. • Cell well read-out: indicating the optical density signal of a cell well not treated with the compound.
6. Calculation of IC50: obtained by using XL-Fit 5.3 software, […]

[2] = molecular target: Recombinant human CSF1R kinase (Homo sapiens (Human), UniProt P07333); test: Measurement of CSF1R kinase activity at molecular level (Z-LYTE); format: biochemical; details: Z-LYTE Tyr 1 peptide
Chain of Recombinant human CSF1R kinase (P07333 20-972): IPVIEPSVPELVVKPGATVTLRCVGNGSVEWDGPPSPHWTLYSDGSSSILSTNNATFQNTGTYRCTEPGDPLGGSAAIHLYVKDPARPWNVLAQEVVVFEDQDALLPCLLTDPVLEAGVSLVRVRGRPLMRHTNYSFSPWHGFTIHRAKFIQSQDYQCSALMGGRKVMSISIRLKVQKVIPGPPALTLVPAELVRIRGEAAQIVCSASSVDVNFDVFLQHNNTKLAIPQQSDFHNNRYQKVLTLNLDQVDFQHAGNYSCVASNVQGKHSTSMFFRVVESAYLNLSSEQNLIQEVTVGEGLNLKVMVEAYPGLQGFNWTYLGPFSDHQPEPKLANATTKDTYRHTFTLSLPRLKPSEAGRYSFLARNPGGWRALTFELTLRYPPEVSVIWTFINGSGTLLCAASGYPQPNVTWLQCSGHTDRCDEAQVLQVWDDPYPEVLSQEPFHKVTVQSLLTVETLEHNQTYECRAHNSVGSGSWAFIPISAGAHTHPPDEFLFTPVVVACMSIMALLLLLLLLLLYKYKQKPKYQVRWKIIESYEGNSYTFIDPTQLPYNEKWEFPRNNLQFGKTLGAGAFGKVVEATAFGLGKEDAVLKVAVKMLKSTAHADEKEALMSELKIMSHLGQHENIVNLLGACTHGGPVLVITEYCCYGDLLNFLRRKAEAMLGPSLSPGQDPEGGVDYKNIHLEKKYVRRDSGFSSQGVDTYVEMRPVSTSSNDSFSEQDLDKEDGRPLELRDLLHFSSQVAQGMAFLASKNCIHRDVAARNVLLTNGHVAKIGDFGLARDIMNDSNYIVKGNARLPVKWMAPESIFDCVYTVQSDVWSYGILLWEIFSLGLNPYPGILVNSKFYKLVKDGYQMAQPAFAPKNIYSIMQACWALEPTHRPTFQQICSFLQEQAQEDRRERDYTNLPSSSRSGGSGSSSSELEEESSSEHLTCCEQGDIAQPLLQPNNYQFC
Method: Invitrogen, PV3227; • Development reagent B: Invitrogen, PV3295; • Development buffer: Invitrogen. P3127; • Stopping solution: Invitrogen, P3094; • Recombinant human CSF1R kinase: Invitrogen, P[…]; • 384 well plate, black: Corning. 3575; • Envision: Perkin Elmer. 2. […] The test compound was diluted in gradient to 4-fold the reaction concentration and the concentration of DMSO was kept at 8%. […] The mixture was mixed gently with a pipette. • 4) A phosphorylated peptide substrate solution (PP solution): 0.4 μL of Z-LYTETM Tyr1 phosphorylated peptide substrate was added to 99.6 μl of 1.33× kinase buffer. • 5) ATP solution: 10 mM of ATP was diluted to 760 μM with 1.33× kinase buffer to prepare ATP solution. • 6) Development solution: Development reagent B was diluted with Development buffer at a ratio of 1:200. 3. […] 2.5 μL of 4× test compound was added to each reaction well of the 384 plate, and the corresponding volume of 8% DMSO was added to the control well. The plate was placed on ice. […] After adding the reaction components, the 384-well plate was sealed and incubated at 25-30° C. for 1 h in dark. 2) Development Reaction 5 μL of Development solution was added to each well, sealed and incubated at 25-30° C. for another 1 h in dark. 3) Reaction Stopping and Plate Reading 5 μL of stopping solution was added to each well. The Coumarin value (excitation at 400 nm, emission at 445 nm) and Fluorescein value (excitation at 400 nm, emission at 520 nm) were measured, respectively. 4. […] Coumarin emission read-out (445 nm)/Fluorescein emission read-out (520 nm); • C3 445 nm: 100% phosphorylated Coumarin emission read-out; • C3 520 nm: 100% phosphorylated Fluorescein emission read-out; • C1 445 nm: 0% phosphorylated Coumarin emission read-out; • C1 520 nm: 0% phosphorylated Fluorescein emission read-out. […] 5. IC50 values: calculated by using software XL-FitTM (version 5.3) supplied by ID Business Solutions (Guildford, UK), which is an additional software to Microsoft Excel.

Chain of CSF1R phosphorylation in THP-1 cells (P07333 20-972): as above

SMILES	IC50 [1] [nM]	IC50 [2] [nM]
COc1ccc(COc2ncc(Oc3ccc4ncc(C)c(=O)n4c3)cc2OC)cc1 [Compound 6]	4	7
COc1cc(Oc2ccc3ncc(C)c(=O)n3c2)cnc1OCc1cccc(Cl)c1 [Compound 26]	108	6
